Results reported in patent US20110105855A1, “EARLY DETECTION OF COGNITION IMPAIRMENT IN ELDERLY POPULATION” (TRUSTEES OF TUFTS COLLEGE, priority 2009, published 2011).

How the values were obtained:
[1] = set-up: species or system rhesus monkeys (Macaca mulatta); details: rhesus monkey, in vivo, 2.2 mg/kg/day
Excerpt: Study 1. Lutein and Zeaxanthin Supplementation Study. Eighteen rhesus monkeys (Macaca mulatta) were reared on one of two semipurified diets, both of which contained adequate levels of all known nutrients, but no detectable xanthophylls as analyzed by our laboratory. The animals also received limited amounts of very low xanthophyll foods such as wheat or rice cereals, white rice, sweetened drinks and gelatin, pineapple and banana.
Beginning at 7-16 years of age, 6 of these monkeys were supplemented with pure lutein and 6 with pure zeaxanthin, at 3.9 μmol/kg/day (2.2 mg/kg/day). The lutein and zeaxanthin supplements were purified or synthesized by DSM Nutritional Products, Ltd. The supplements were inserted into marshmallows, sweetened gelatin or small pieces of fruit. Beadlets and individual supplement doses were stored at 4° C. in the dark. […]
Biopsy punches were used to dissect the central retina, containing the macula, into a 4 mm diameter circle centered on the fovea. Retinal tissue was analyzed for carotenoids as described previously (1). Cerebellum and occipital cortex samples were collected and analyzed for carotenoids as described by Park et al. (2). […]
Relationships between retina and brain tissue were evaluated using Pearson's correlation coefficients. For those relationships with sample size >6, p values were calculated.

cognitive function = details: healthy older adults, intervention trial (Johnson et al. 2008); cited from earlier work
[2] = elderly population of healthy 65 year olds; cited from earlier work

SMILES | Carotenoids found in brain tissue [1] | Effect of supplementation on cognitive function (cognitive function) | Average plasma level [2] [µM]
CC1=C[C@H](O)CC(C)(C)[C@H]1/C=C/C(C)=C/C=C/C(C)=C/C=C/C=C(C)/C=C/C=C(C)/C=C/C1=C(C)C[C@@H](O)CC1(C)C [Lutein] | the only carotenoid measured in brain tissue | improve cognitive function | 0.27 ± 0.15
CC1=C(/C=C/C(C)=C/C=C/C(C)=C/C=C/C=C(C)/C=C/C=C(C)/C=C/C2=C(C)C[C@@H](O)CC2(C)C)C(C)(C)C[C@H](O)C1 [Zeaxanthin] | the only carotenoid measured in brain tissue |  | 0.032 ± 0.021
